{"source": "ChEMBL document CHEMBL1201862", "about": "“PubChem BioAssay data set” (2004)", "assay_type_in_all_cases": "functional", "key": {"[1]": {"target": "T1, Melanin-concentrating hormone receptor 1 (Homo sapiens, UniProt Q99705)", "T1 sequence (Q99705 whole entry)": "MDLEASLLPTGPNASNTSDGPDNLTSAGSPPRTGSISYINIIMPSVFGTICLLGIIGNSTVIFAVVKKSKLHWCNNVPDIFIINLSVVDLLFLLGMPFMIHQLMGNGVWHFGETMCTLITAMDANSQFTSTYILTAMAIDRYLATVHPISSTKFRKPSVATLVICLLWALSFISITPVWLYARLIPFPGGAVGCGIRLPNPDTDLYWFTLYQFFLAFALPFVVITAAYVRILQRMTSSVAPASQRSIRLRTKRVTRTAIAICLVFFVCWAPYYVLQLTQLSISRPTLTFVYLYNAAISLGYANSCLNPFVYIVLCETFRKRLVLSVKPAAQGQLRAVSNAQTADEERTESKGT", "experiment": "Late-stage fluorescence-based counterscreen for antagonists of the G-protein coupled receptor 7 (GPR7): cell-based dose response assay to identify antagonists of the melanin-concentrating hormone receptor 1 (MCHR1) Set 5."}, "[2]": {"target": "T2, Neuropeptides B/W receptor type 1 (Homo sapiens, UniProt P48145)", "T2 sequence (P48145 whole entry)": "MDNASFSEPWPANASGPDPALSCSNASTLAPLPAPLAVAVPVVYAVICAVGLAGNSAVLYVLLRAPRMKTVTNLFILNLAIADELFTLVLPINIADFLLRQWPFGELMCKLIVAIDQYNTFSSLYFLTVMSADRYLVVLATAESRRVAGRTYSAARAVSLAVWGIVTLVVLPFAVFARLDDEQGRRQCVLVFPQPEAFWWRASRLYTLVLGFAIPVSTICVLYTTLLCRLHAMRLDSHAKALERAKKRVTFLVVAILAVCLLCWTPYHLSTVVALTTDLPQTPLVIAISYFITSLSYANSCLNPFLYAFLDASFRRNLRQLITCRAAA", "experiment": "GPR7 antagonist potency, late-stage follow-up, cell-based, fluorescence, dose response, set 5 (AID 588566)"}, "[3]": {"experiment": "Vero cell cytotoxicity, dose response, cytotoxicity control for M. tuberculosis inhibitor project, purified and synthesized compounds, set 6 (AID 588445)", "details": "Mycobacterium tuberculosis"}, "[4]": {"experiment": "THP-1 cell cytotoxicity, cytotoxicity control, set 5 (AID 588443)"}, "[5]": {"target": "T3, Neuropeptide Y receptor type 2 (Homo sapiens, UniProt P49146)", "T3 sequence (P49146 whole entry)": "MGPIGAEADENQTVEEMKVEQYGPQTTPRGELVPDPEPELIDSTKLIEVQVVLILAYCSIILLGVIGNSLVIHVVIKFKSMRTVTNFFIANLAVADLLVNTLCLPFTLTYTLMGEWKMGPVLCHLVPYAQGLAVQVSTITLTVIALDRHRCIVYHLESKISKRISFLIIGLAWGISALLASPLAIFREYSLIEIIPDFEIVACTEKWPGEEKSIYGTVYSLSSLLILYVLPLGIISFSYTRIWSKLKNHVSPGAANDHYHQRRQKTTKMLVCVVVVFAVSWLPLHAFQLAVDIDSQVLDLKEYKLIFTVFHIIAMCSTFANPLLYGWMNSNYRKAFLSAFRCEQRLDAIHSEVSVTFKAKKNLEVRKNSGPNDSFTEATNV", "experiment": "Fluorescence-based cell-based high-throughput dose response assay for agonists of NPY-Y2. [Related pubchem assays: 1703 (Screening assay (CNGC inhibitors).), 1359 (Screening assay (NPY-Y2 potentiators or agonists).), 1304 (Screening assay (NPY-Y1 potentiators or agonists).), 1710 (Screening assay (NPY-Y2 agonists).), 1791 (Summary AID.)]"}, "[6]": {"target": "T4, Neuropeptide Y receptor type 1 (Homo sapiens, UniProt P25929)", "T4 sequence (P25929 whole entry)": "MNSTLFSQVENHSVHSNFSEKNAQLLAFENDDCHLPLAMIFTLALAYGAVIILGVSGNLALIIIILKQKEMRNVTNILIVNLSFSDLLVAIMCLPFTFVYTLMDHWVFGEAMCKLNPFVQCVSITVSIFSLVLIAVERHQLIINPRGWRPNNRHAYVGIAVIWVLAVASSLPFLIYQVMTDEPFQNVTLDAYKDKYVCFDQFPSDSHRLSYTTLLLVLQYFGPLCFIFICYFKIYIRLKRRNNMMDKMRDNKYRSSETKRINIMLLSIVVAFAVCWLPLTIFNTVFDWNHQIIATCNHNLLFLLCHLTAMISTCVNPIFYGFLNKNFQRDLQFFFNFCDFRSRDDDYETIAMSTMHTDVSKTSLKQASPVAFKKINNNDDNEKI", "experiment": "Fluorescence-based counterscreen for agonists of NPY-Y2: cell-based high-throughput dose response assay for agonists of NPY-Y1."}, "Melanocortin receptor 4": {"target": "Melanocortin receptor 4 (Homo sapiens, UniProt P32245)", "sequence (P32245 whole entry)": "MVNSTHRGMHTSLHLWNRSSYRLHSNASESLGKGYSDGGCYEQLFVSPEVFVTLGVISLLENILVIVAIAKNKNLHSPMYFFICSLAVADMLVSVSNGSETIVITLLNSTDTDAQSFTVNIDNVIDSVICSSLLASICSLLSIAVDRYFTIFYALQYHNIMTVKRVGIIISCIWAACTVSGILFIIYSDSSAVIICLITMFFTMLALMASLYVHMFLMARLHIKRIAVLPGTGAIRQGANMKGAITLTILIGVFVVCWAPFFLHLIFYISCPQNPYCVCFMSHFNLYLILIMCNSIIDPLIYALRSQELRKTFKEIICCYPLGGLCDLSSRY", "experiment": "MC4R antagonist potency on cAMP, dose response, cell-based, TR-FRET, biased antagonists (AID 602298);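 note: antagonist potency against agonist-stimulated cAMP production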"}, "[7]": {"experiment": "nonselective inhibitors of cellular cAMP signaling, dose response, counter-screen for MC4R biased antagonist project, cell-based, TR-FRET cAMP detection (AID 602305);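 note: U2OS cells stimulated with forskolin near its EC80 as the cAMP inducer; potency is for inhibition of forskolin-stimulated cAMP signaling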"}, "HEK293": {"system": "HEK293", "experiment": "Fluorescence-based counterscreen for potentiators or agonists of NPY-Y2: cell-based high-throughput dose response assay to identify inhibitors of cyclic nucleotide gated ion channel (CNGC) activity. In this assay, the parental HEK293 cell line transfected with a cyclic-nucleotide gated ion channel (CNGC)-based cAMP sensor is used to measure inhibition of isoproterenol-induced CNGC activity by test compound.", "details": "Homo sapiens"}, "[8]": {"target": "T1, Melanin-concentrating hormone receptor 1", "experiment": "Late-stage fluorescence-based counterscreen for antagonists of the G-protein coupled receptor 7 (GPR7): cell-based dose response assay to identify antagonists of the melanin-concentrating hormone receptor 1 (MCHR1) Set 6."}, "[9]": {"target": "T2, Neuropeptides B/W receptor type 1", "experiment": "GPR7 antagonist potency, late-stage follow-up, cell-based, fluorescence, dose response, set 6 (AID 588583)"}, "[10]": {"target": "T5, High affinity choline transporter 1 (Homo sapiens, UniProt Q9GZV3)", "T5 sequence (Q9GZV3 whole entry)": "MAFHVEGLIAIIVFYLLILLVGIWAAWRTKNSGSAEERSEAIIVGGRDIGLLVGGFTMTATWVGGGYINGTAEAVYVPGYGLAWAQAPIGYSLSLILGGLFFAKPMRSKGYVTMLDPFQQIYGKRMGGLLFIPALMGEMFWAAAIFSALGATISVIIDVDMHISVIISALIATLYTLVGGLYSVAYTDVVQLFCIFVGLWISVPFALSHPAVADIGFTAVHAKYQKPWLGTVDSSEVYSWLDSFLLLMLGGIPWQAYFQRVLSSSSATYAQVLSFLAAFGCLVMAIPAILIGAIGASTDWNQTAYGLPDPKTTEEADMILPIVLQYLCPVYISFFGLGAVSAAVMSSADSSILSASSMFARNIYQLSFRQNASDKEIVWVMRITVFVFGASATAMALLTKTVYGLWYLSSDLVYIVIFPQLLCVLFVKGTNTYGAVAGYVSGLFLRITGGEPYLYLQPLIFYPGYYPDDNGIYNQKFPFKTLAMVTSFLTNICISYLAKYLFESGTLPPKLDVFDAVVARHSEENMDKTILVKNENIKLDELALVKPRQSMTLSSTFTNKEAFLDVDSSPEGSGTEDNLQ", "experiment": "CHT inhibitors, dose response, cell-based, 10-point CRC, membrane potential dye (AID 588401);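 note: membrane potential dye fluorescence of choline-evoked depolarization via CHT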"}, "[11]": {"target": "T5, High affinity choline transporter 1", "experiment": "CHT inhibitors, dose response, cell-based, 5-point CRC, membrane potential dye (AID 504840)"}}, "note": "Calls of active or inactive are those of the source.", "data": [{"smiles": "COc1ccc(Oc2c(Cl)cnn(Cc3ccc(C(=O)c4ccccc4)cc3)c2=O)cc1", "values": [{"measurement": "IC50", "setting": "[1]", "result": "2.46 µM (active)"}, {"measurement": "IC50", "setting": "[2]", "result": "5.25 µM (active)"}]}, {"smiles": "O=C(c1ccc(CNc2c(N3CCCC3)c(=O)c2=O)cc1)N1CC=C(c2ccccc2)CC1", "values": [{"measurement": "CC50", "setting": "[3]", "result": "> 100 µM (inconclusive)"}, {"measurement": "CC50", "setting": "[4]", "result": "75.8 µM (active)"}]}, {"smiles": "O=C(Nc1ccccc1C(=O)N1CCCC1)c1ccc(Cl)c([N+](=O)[O-])c1", "values": [{"measurement": "EC50", "setting": "[5]", "result": "27.9 µM (not active)"}, {"measurement": "EC50", "setting": "[6]", "result": "18.6 µM (not active)"}, {"measurement": "IC50", "setting": "Melanocortin receptor 4", "result": "20.6 µM (inactive)"}, {"measurement": "IC50", "setting": "[7]", "result": "> 64.6 µM (inactive)"}, {"measurement": "EC50", "setting": "HEK293", "result": "28 µM (not active)"}]}, {"smiles": "N#CC(c1ccc(F)cc1F)c1c(Cl)cnn(Cc2cccc3ccccc23)c1=O", "note": "(stereo not drawn)", "values": [{"measurement": "IC50", "setting": "[8]", "result": "0.214 µM (active)"}, {"measurement": "IC50", "setting": "[9]", "result": "0.214 µM (active)"}]}, {"smiles": "O=C(O)CC1=C(Nc2ccccc2)C(=O)N(c2ccccc2)C1c1ccc(F)cc1", "note": "(stereo not drawn)", "values": [{"measurement": "IC50", "setting": "[10]", "result": "0.751 µM (active)"}, {"measurement": "IC50", "setting": "[11]", "result": "3.9 µM (active)"}]}]}
